Like-named read-outs stand apart in the source and are kept apart here.
Columns and labels:
[1] = system: rats with a unilateral 6-hydroxydopamine lesion; experiment: LIDs in rats with a unilateral 6-hydroxydopamine lesion; format: in vivo; settings: parkinsonian rat model of LIDs
nAChR = settings: cited from earlier work
[2] = system: subjects with idiopathic PD with LIDs; settings: Visit 4 (Week 10)
Description: (§1) At the time the study was performed (2009), there was no FDA accepted instrument for measuring treatment efficacy for LIDs. Therefore, several secondary objectives were utilized to assess efficacy including the Unified Dyskinesia Rating Scale (UDysRS).

[3] = system: subjects with idiopathic PD with LIDs; settings: for Study discontinuation, primary reason adverse event, n (%): 35 randomized
Description: as §1
A total of 65 male and female subjects with idiopathic PD with LIDs were randomized in the study. The study consisted of 4 phases (FIG. 6A): screening phase (up to 3 weeks), double-blind treatment phase (10 weeks), taper phase (2 weeks), and follow-up phase (2 weeks). The approximate duration of the study for each subject was 17 weeks. […] During the double-blind treatment phase, dosing was begun at Visit 0 at 1 mg every 6 hours (total daily dose [TDD]=4 mg/day) and escalated upwards at 2-week intervals as follows: 2 mg every 6 hours (TDD=8 mg/day) at Visit 1 (Week 2); 4 mg every 6 hours (TDD=16 mg/day) at Visit 2 (Week 4); 6 mg every 6 hours (TDD=24 mg/day) at Visit 3 (Week 6). Subjects were maintained on 24 mg/day for 4 weeks. The subsequent taper phase (2 weeks total), beginning at Visit 4 (Week 10), consisted of 9 days of drug taper and 5 days off drug prior to Visit 5 (final safety visit). […] Ondansetron was provided by the sponsor and dispensed with each dose escalation step with instructions to use it for nausea and vomiting only during the first 4 days following dose initiation or escalation. […] No other dose down-titration was allowed.
(§2) Efficacy was measured with the Unified Dyskinesia Rating Scale (UDysRS), a semi-quantitative assessment, FDA-validated instrument to assess […] dyskinesia in PD. […] Dosing was begun at 1 mg every 6 hours to a final dose of 24 mg per day. Patients who tolerated a total daily dose of at least 16 mg per day continued in the study.
Subjects were maintained on 24 mg/day for 4 weeks. The subsequent taper phase (2 weeks total), beginning at visit 4 (Week 10), consisted of 9 days of drug taper and 5 days off drug prior to Visit 5 (final safety visit). […] No other down-titration was allowed.
(§3) LIDs were assessed by the UDysRS, the main measure of LIDs (Table 12). […] The study was conducted in accordance with the Declaration of Helsinki and Good Clinical Practice Guidelines. All sites received approval from an institutional review board and written informed consent was obtained from each patient prior to participation.

[4] = cited from earlier work; for absorption: oral / gastrointestinal tract
[5] = system: subjects with idiopathic PD with LIDs; settings: during the 10-week study
Description: The original UPDRS scale was used. […] In the UPDRS Part II, Question 13 is on Falling unrelated to Freezing. […] In Part II, Question 14 is on Freezing when Walking. This is a 5-point item and has two variables freezing and falls. […] Questions 13 and 14 were compared separately (Table 11).
(§4) The efficacy variables for LIDs were the mean change from baseline to week 10 in the UDysRS total score; UDysRS sub-scores (Table 12). An analysis of covariance (ANCOVA) combined features of regression and analysis of variance (ANOVA). In addition to the descriptive summary of each variable from baseline to endpoint, Least Square (LS) means standard errors and 95% Confidence intervals (CI) of each group, and the difference of LS means between the 2 treatment groups and its 95% CI are presented. A similar analysis was applied to comparisons between UPDRS Part II, UPDRS Part III.

[6] = system: subjects with idiopathic PD with LIDs
Description: as §1, §2, §3, §4

all nAChRs = settings: cited from earlier work
[7] = Phase 2 data used for sample size

c1cncc(OC[C@@H]2CCN2)c1 [A-85380]
effect on LIDs [1]: reduced LIDs to varying extents

Cc1ncccc1OC[C@@H]1CCCN1 [ABT-089]
Type of agonist (nAChR): Partial

c1cc2cc(-c3ccc(O[C@H]4CN5CCC4CC5)nn3)ccc2[nH]1 [ABT-107]
Type of agonist (nAChR): Full

Clc1cc(N2C[C@@H]3CN[C@@H]3C2)cnc1Cl [ABT-894]
Type of agonist (nAChR): Full

Cc1ccc(-c2ccc(OC3CN4CCC3CC4)cn2)cc1 (centres unmarked) [AQW051]
Type of agonist (nAChR): Partial

O=C(c1ccc(Cl)o1)N1CC2CNCC2C1 (centres unmarked) [AZD1446]
Type of agonist (nAChR): Full

CN1CCC[C@H]1c1cccnc1 [Nicotine, (S)-3-[1-methylpyrrolidin-2-yl]pyridine, reference compound]
PGI-C responders (score of 1, 2, or 3) ([2]; p=0.0048 vs placebo): 21 (77.8%)
LF-ADL responders (>25% reduction from baseline), vs placebo ([2]; p=0.0453): statistically significant difference between treatment groups
Study discontinuation, primary reason adverse event, n (%) [3]: 6 n (%)
Study discontinuation, primary reason adverse event, n (%) ([3]; listed as nicotine): Six
impulsivity and nicotine withdrawal symptoms ([3]; after taper from 24 mg/day): no issues with impulsivity or withdrawal symptoms
overall safety and tolerability ([3]; oral 4 times/day up to 24 mg/day, 10 weeks): safe and well tolerated
first-pass metabolism ([4]; in vivo): extensively metabolized into cotinine
half-life ([4]; in vivo): very short half-life
absorption [4]: well-absorbed in the gastrointestinal tract
absorption ([4]; listed as nicotine): rapidly absorbed
efficacy over time (rats and mice; in vivo): no decline in its efficacy over time
effect on LIDs (rats and mice; oral application, injection, slow-release minipumps): reduced LIDs
worsening of Parkinson symptoms (UPDRS Part III, Hoehn and Yahr) [5]: neither the UPDRS Part III nor the Hoehn and Yahr scales showed any worsening
worsening of Parkinson symptoms (UPDRS Part III, Hoehn and Yahr) ([5]; listed as nicotine): did not cause any worsening of the PD symptoms
Type of agonist (nAChR): Full
nAChR subtype (nAChR): All
UDysRS part III, Week 10 result: change from baseline, mean [6, 7]: 5.2
UDysRS walking, Week 10 result: change from baseline, mean [6, 7]: 4.4
Gait-subtest of the UDysRS vs placebo ([6]; in vivo): statistically superior to placebo
dyskinesia disability (UDysRS part 3), Walking, LF-ADL and PGI-C responders vs placebo ([6]; in vivo): Statistically significant differences favoring nicotine compared to placebo

CN[C@@H](C)C/C=C/c1cncc(OC)c1 [TC-2696]
effect on LIDs [1]: reduced LIDs to varying extents

c1cnc2cc3c(cc2n1)[C@@H]1CNC[C@H]3C1 [Varenicline]
effect on LIDs [1]: reduced LIDs to varying extents
Ki (all nAChRs): 0.1 nM
Type of agonist (nAChR): Partial
nAChR subtype (nAChR): All

OCCCCC#Cc1cncc(OC[C@@H]2CCN2)c1 [sazetidine]
effect on LIDs [1]: reduced LIDs to varying extents

Reference: patent publication US20190307740A1, “COMPOSITIONS AND METHODS FOR TREATMENT RELATED TO FALL AND FALL FREQUENCY IN NEURODEGENERATIVE DISEASES” (Neurocea, LLC, priority 2016, published 2019)
